The values that follow come from ChEMBL document CHEMBL1629466, “Synthesis and biological activity of some antitumor active derivatives from glycyrrhetinic acid” (Eur J Med Chem, 2010).

Each structure is given as a SMILES string.

The first experiment deals with HCT-8. Description: Cytotoxicity against human HCT8 cells after 96 hrs by sulforhodamine B assay. It is filed as functional, cell-based. In general terms: In SRB staining, fixed cells bind dye roughly in proportion to their protein.
In the case of `CC1(C)[C@@H](O)CC[C@]2(C)[C@H]3C(=O)C=C4[C@@H]5C[C@@](C)(C(=O)O)CC[C@]5(C)CC[C@@]4(C)[C@]3(C)CC[C@@H]12` [ENOXOLONE], the IC50 came out at 78.85 µmol.

Turning to `COC(=O)[C@@]1(C)CC[C@]2(C)CC[C@]3(C)C(=CC(=O)[C@@H]4[C@@]5(C)CC[C@H](OC(=O)CNCCCCCCCCN)C(C)(C)[C@@H]5CC[C@]43C)[C@@H]2C1`, the IC50 worked out at 2.92 µmol.

Tested on in a further experiment: not listed separately
In words: Cytotoxicity against human Lipo cells after 96 hrs by sulforhodamine B assay. In kind it is functional, cell-based.
`CC1(C)[C@@H](O)CC[C@]2(C)[C@H]3C(=O)C=C4[C@@H]5C[C@@](C)(C(=O)O)CC[C@]5(C)CC[C@@]4(C)[C@]3(C)CC[C@@H]12` [ENOXOLONE] gave an IC50 of 81.44 µmol.

On to `COC(=O)[C@@]1(C)CC[C@]2(C)CC[C@]3(C)C(=CC(=O)[C@@H]4[C@@]5(C)CC[C@H](OC(=O)CNCCCCCCCCN)C(C)(C)[C@@H]5CC[C@]43C)[C@@H]2C1`, for which the IC50 came out at 4.36 µmol.

Tested on in a further experiment: not listed separately
In words: Cytotoxicity against human 518A2 cells after 96 hrs by sulforhodamine B assay. In kind it is functional, cell-based.
For the compound `CC1(C)[C@@H](O)CC[C@]2(C)[C@H]3C(=O)C=C4[C@@H]5C[C@@](C)(C(=O)O)CC[C@]5(C)CC[C@@]4(C)[C@]3(C)CC[C@@H]12` [ENOXOLONE], the IC50 was found to be 83.92 µmol.

`COC(=O)[C@@]1(C)CC[C@]2(C)CC[C@]3(C)C(=CC(=O)[C@@H]4[C@@]5(C)CC[C@H](OC(=O)CNCCCCCCCCN)C(C)(C)[C@@H]5CC[C@]43C)[C@@H]2C1` displayed an IC50 of 3.49 µmol.

In another experiment the test system is SW-1736. In words: Cytotoxicity against human SW1736 cells after 96 hrs by sulforhodamine B assay. It is filed as functional, cell-based.
On to `CC1(C)[C@@H](O)CC[C@]2(C)[C@H]3C(=O)C=C4[C@@H]5C[C@@](C)(C(=O)O)CC[C@]5(C)CC[C@@]4(C)[C@]3(C)CC[C@@H]12` [ENOXOLONE], for which the IC50 came out at 76.93 µmol.

Compound `COC(=O)[C@@]1(C)CC[C@]2(C)CC[C@]3(C)C(=CC(=O)[C@@H]4[C@@]5(C)CC[C@H](OC(=O)CNCCCCCCCCN)C(C)(C)[C@@H]5CC[C@]43C)[C@@H]2C1` displayed an IC50 of 4.09 µmol.

The next experiment relates to A549. In words: Cytotoxicity against human A549 cells after 96 hrs by sulforhodamine B assay. It is filed as functional, cell-based.
As for `CC1(C)[C@@H](O)CC[C@]2(C)[C@H]3C(=O)C=C4[C@@H]5C[C@@](C)(C(=O)O)CC[C@]5(C)CC[C@@]4(C)[C@]3(C)CC[C@@H]12` [ENOXOLONE], the IC50 came to 82.76 µmol.

In turn, `COC(=O)[C@@]1(C)CC[C@]2(C)CC[C@]3(C)C(=CC(=O)[C@@H]4[C@@]5(C)CC[C@H](OC(=O)CNCCCCCCCCN)C(C)(C)[C@@H]5CC[C@]43C)[C@@H]2C1` showed an IC50 of 4.08 µmol.

In a further experiment the test system is MCF7. In words: Cytotoxicity against human MCF7 cells after 96 hrs by sulforhodamine B assay. In kind it is functional, cell-based.
In turn, `CC1(C)[C@@H](O)CC[C@]2(C)[C@H]3C(=O)C=C4[C@@H]5C[C@@](C)(C(=O)O)CC[C@]5(C)CC[C@@]4(C)[C@]3(C)CC[C@@H]12` [ENOXOLONE] returned an IC50 of 84.7 µmol.

In the case of `COC(=O)[C@@]1(C)CC[C@]2(C)CC[C@]3(C)C(=CC(=O)[C@@H]4[C@@]5(C)CC[C@H](OC(=O)CNCCCCCCCCN)C(C)(C)[C@@H]5CC[C@]43C)[C@@H]2C1`, the IC50 is 3.89 µmol.

Another experiment relates to SW480. In words: Cytotoxicity against human SW480 cells after 96 hrs by sulforhodamine B assay. In kind it is functional, cell-based.
With `CC1(C)[C@@H](O)CC[C@]2(C)[C@H]3C(=O)C=C4[C@@H]5C[C@@](C)(C(=O)O)CC[C@]5(C)CC[C@@]4(C)[C@]3(C)CC[C@@H]12` [ENOXOLONE], the IC50 is 86.8 µmol.

As to `COC(=O)[C@@]1(C)CC[C@]2(C)CC[C@]3(C)C(=CC(=O)[C@@H]4[C@@]5(C)CC[C@H](OC(=O)CNCCCCCCCCN)C(C)(C)[C@@H]5CC[C@]43C)[C@@H]2C1`, the IC50 worked out at 3.93 µmol.

The test system of the next experiment is HT-29. In words: Cytotoxicity against human HT-29 cells after 96 hrs by sulforhodamine B assay. In kind it is functional, cell-based.
For `CC1(C)[C@@H](O)CC[C@]2(C)[C@H]3C(=O)C=C4[C@@H]5C[C@@](C)(C(=O)O)CC[C@]5(C)CC[C@@]4(C)[C@]3(C)CC[C@@H]12` [ENOXOLONE], the IC50 is 80.09 µmol.

The compound `COC(=O)[C@@]1(C)CC[C@]2(C)CC[C@]3(C)C(=CC(=O)[C@@H]4[C@@]5(C)CC[C@H](OC(=O)CNCCCCCCCCN)C(C)(C)[C@@H]5CC[C@]43C)[C@@H]2C1` displayed an IC50 of 2.76 µmol.

The test system of a further experiment is 8505C. In words: Cytotoxicity against human 8505C cells after 96 hrs by sulforhodamine B assay. It is filed as functional, cell-based.
`CC1(C)[C@@H](O)CC[C@]2(C)[C@H]3C(=O)C=C4[C@@H]5C[C@@](C)(C(=O)O)CC[C@]5(C)CC[C@@]4(C)[C@]3(C)CC[C@@H]12` [ENOXOLONE] yielded an IC50 of 86.5 µmol.

For the compound `COC(=O)[C@@]1(C)CC[C@]2(C)CC[C@]3(C)C(=CC(=O)[C@@H]4[C@@]5(C)CC[C@H](OC(=O)CNCCCCCCCCN)C(C)(C)[C@@H]5CC[C@]43C)[C@@H]2C1`, the IC50 is 3.35 µmol.

Tested on in another experiment: not listed separately
In words: Cytotoxicity against human A253 cells after 96 hrs by sulforhodamine B assay. It is filed as functional, cell-based.
Take `CC1(C)[C@@H](O)CC[C@]2(C)[C@H]3C(=O)C=C4[C@@H]5C[C@@](C)(C(=O)O)CC[C@]5(C)CC[C@@]4(C)[C@]3(C)CC[C@@H]12` [ENOXOLONE]: the IC50 amounted to 80.78 µmol.

In the case of `COC(=O)[C@@]1(C)CC[C@]2(C)CC[C@]3(C)C(=CC(=O)[C@@H]4[C@@]5(C)CC[C@H](OC(=O)CNCCCCCCCCN)C(C)(C)[C@@H]5CC[C@]43C)[C@@H]2C1`, the IC50 turned out to be 3.01 µmol.

A further experiment deals with FaDu. Description: Cytotoxicity against human FADU cells after 96 hrs by sulforhodamine B assay. In kind it is functional, cell-based.
For `CC1(C)[C@@H](O)CC[C@]2(C)[C@H]3C(=O)C=C4[C@@H]5C[C@@](C)(C(=O)O)CC[C@]5(C)CC[C@@]4(C)[C@]3(C)CC[C@@H]12` [ENOXOLONE], the IC50 amounted to 84.55 µmol.

For the compound `COC(=O)[C@@]1(C)CC[C@]2(C)CC[C@]3(C)C(=CC(=O)[C@@H]4[C@@]5(C)CC[C@H](OC(=O)CNCCCCCCCCN)C(C)(C)[C@@H]5CC[C@]43C)[C@@H]2C1`, the IC50 is 4.26 µmol.

The test system of another experiment is DLD-1. In words: Cytotoxicity against human DLD1 cells after 96 hrs by sulforhodamine B assay. It is filed as functional, cell-based.
Turning to `CC1(C)[C@@H](O)CC[C@]2(C)[C@H]3C(=O)C=C4[C@@H]5C[C@@](C)(C(=O)O)CC[C@]5(C)CC[C@@]4(C)[C@]3(C)CC[C@@H]12` [ENOXOLONE], the IC50 was 81.21 µmol.

`COC(=O)[C@@]1(C)CC[C@]2(C)CC[C@]3(C)C(=CC(=O)[C@@H]4[C@@]5(C)CC[C@H](OC(=O)CNCCCCCCCCN)C(C)(C)[C@@H]5CC[C@]43C)[C@@H]2C1` had an IC50 of 3.96 µmol.

In the next experiment the test system is HCT-116. In words: Cytotoxicity against human HCT116 cells after 96 hrs by sulforhodamine B assay. It is filed as functional, cell-based.
In turn, `CC1(C)[C@@H](O)CC[C@]2(C)[C@H]3C(=O)C=C4[C@@H]5C[C@@](C)(C(=O)O)CC[C@]5(C)CC[C@@]4(C)[C@]3(C)CC[C@@H]12` [ENOXOLONE] registered an IC50 of 78.83 µmol.

`COC(=O)[C@@]1(C)CC[C@]2(C)CC[C@]3(C)C(=CC(=O)[C@@H]4[C@@]5(C)CC[C@H](OC(=O)CNCCCCCCCCN)C(C)(C)[C@@H]5CC[C@]43C)[C@@H]2C1` returned an IC50 of 3.53 µmol.

In a further experiment the test system is A2780. In words: Cytotoxicity against human A2780 cells after 96 hrs by sulforhodamine B assay. In kind it is functional, cell-based.
For `CC1(C)[C@@H](O)CC[C@]2(C)[C@H]3C(=O)C=C4[C@@H]5C[C@@](C)(C(=O)O)CC[C@]5(C)CC[C@@]4(C)[C@]3(C)CC[C@@H]12` [ENOXOLONE], the IC50 was 74.57 µmol.

With `COC(=O)[C@@]1(C)CC[C@]2(C)CC[C@]3(C)C(=CC(=O)[C@@H]4[C@@]5(C)CC[C@H](OC(=O)CNCCCCCCCCN)C(C)(C)[C@@H]5CC[C@]43C)[C@@H]2C1`, the IC50 stood at 2.8 µmol.
